Measured values reported in patent US20200123175A1, “NOVEL ISOTHIAZOLO-BASED BICYCLES, PROCESSES FOR THEIR PREPARATION AND THEIR USE AS HERBICIDES AND/OR PLANT GROWTH REGULATORS” (Bayer CropScience Aktiengesellschaft, priority 2017, published 2020).

Assays:
[1] = system: AMARE; assay: Herbicidal action pre-emergence (PE); type: in vivo, Amaranthus retroflexus; details: dosage 320 g/ha
[2] = system: VIOTR; assay: Herbicidal action pre-emergence (PE); type: in vivo, Viola tricolor; details: dosage 320 g/ha
[3] = system: ALOMY; assay: Herbicidal action pre-emergence (PE); type: in vivo, Alopecurus myosuroides; details: dosage 320 g/ha
[4] = system: AMARE; assay: Herbicidal action post-emergence (PO); type: in vivo, Amaranthus retroflexus; details: dosage 320 g/ha
[5] = system: VIOTR; assay: Herbicidal action post-emergence (PO); type: in vivo, Viola tricolor; details: dosage 320 g/ha
[6] = system: ABUTH; assay: Herbicidal action post-emergence (PO); type: in vivo, Abutilon theophrasti; details: dosage 320 g/ha
[7] = system: SETVI; assay: Herbicidal action post-emergence (PO); type: in vivo, Setaria viridis; details: dosage 320 g/ha
[8] = system: PHBPU; assay: Herbicidal action post-emergence (PO); type: in vivo, Pharbitis purpurea; details: dosage 320 g/ha
[9] = system: Puccinia recondita; assay: In vivo preventive test on Puccinia recondita (brown rust on wheat); details: 100 ppm of active ingredient; wheat plants; evaluated 11 days after the inoculation
Description: (§1) 4) Example: In Vivo Preventive Test on Puccinia recondita (Brown Rust on Wheat) [table] The active ingredients were made soluble and homogenized in a mixture of Dimethyl sulfoxide/Acetone//Tween® 80 and then diluted in water to the desired concentration. The young plants of wheat were treated by spraying the active ingredient prepared as described above. Control plants were treated only with an aqueous solution of Acetone/Dimethyl sulfoxide/Tween® 80. After 24 hours, the plants were contaminated by spraying the leaves with an aqueous suspension of Puccinia recondita spores.

[10] = system: ECHCG; assay: Herbicidal action pre-emergence (PE); type: in vivo, Echinochloa crus-galli; details: dosage 320 g/ha
[11] = system: SETVI; assay: Herbicidal action pre-emergence (PE); type: in vivo, Setaria viridis; details: dosage 320 g/ha
[12] = system: MATIN; assay: Herbicidal action pre-emergence (PE); type: in vivo, Matricaria inodora; details: dosage 320 g/ha
[13] = system: POLCO; assay: Herbicidal action pre-emergence (PE); type: in vivo, Polygonum convolvulus; details: dosage 320 g/ha
[14] = system: Pyrenophora teres; assay: In vivo preventive test on Pyrenophora teres (net blotch on barley); details: 100 ppm of active ingredient; barley plants; evaluated 14 days after the inoculation
Description: as §1, with “5)” for “4)”, “Pyrenophora teres (Net Blotch” for “Puccinia recondita (Brown Rust”, “Barley)” for “Wheat)”, “barley” for “wheat”, “Pyrenophora teres” for “Puccinia recondita”

`O=C(Nc1nsc2c(=O)n(CC3CCCCC3)cnc12)c1cc(Cl)cc(Cl)c1` [Example I-20] showed an AMARE [1] of 100, a VIOTR [2] of 100 and an ALOMY [3] of 80.
Compound `O=C(Nc1nsc2c(=O)n(CC3CCCCC3)cnc12)c1cccnc1` [Example I-06] has an AMARE [1] of 100, a VIOTR [2] of 100 and an ALOMY [3] of 90. The AMARE [4] was 100, the VIOTR [5] was 100 and the ABUTH [6] was 100.
`CC(=O)Nc1nsc2c(=O)n(Cc3ccc(F)cc3F)cnc12` [Example I-79] was tested, and the AMARE [1] was 100, the VIOTR [2] was 100 and the ALOMY [3] was 100. It also gave an AMARE [4] of 100, a VIOTR [5] of 100 and an ABUTH [6] of 90.
`O=C(Nc1nsc2c(=O)n(CC3CCCCC3)cnc12)C1CC1` [Example I-07] was tested, and the AMARE [1] was 100, the VIOTR [2] was 100 and the ALOMY [3] was 100. It also gave an SETVI [7] of 100, an AMARE [4] of 100 and a VIOTR [5] of 100. For the same compound, the ABUTH [6] was 80, the PHBPU [8] was 100 and the efficacy [9] was “at least 70%”.
Work on `O=C(Nc1nsc2c(=O)n(CC3CCCCC3)cnc12)c1ccc(Cl)cc1` [Example I-18] yielded an AMARE [1] of 100, a VIOTR [2] of 100 and an ALOMY [3] of 80.
For `COC(=O)C(=O)Nc1nsc2c(=O)n(CC3CCCCC3)cnc12` [Example I-70], the AMARE [1] was 100, the VIOTR [2] was 100 and the ALOMY [3] was 100. The SETVI [7] was 100, the AMARE [4] was 100 and the VIOTR [5] was 100. For the same compound, the ABUTH [6] was 80 and the PHBPU [8] was 100.
In the case of `Nc1nsc2c1NCN(CC1CCCCCC1)C2=O` [Example I-59, 3-amino-6-(cycloheptylmethyl)-4,5-dihydroisothiazolo[4,5-d]pyrimidin-7-one], the ECHCG [10] is reported as 100, the SETVI [11] is reported as 100 and the AMARE [1] is reported as 100. The VIOTR [2] was 100, the MATIN [12] was 100 and the POLCO [13] was 100. The SETVI [7] was 100, the AMARE [4] was 100 and the VIOTR [5] was 100. It also gave an ABUTH [6] of 100 and a PHBPU [8] of 100.
`COC(=O)CCC(=O)Nc1nsc2c(=O)n(CC3CCCCC3)cnc12` [Example I-72] was tested, and the ECHCG [10] was 100, the SETVI [11] was 100 and the AMARE [1] was 100. It also gave a VIOTR [2] of 100, an MATIN [12] of 100 and a POLCO [13] of 100. The SETVI [7] was 90, the AMARE [4] was 100 and the VIOTR [5] was 90. The ABUTH [6] was 100 and the PHBPU [8] was 100.
Work on `O=C(Nc1nsc2c(=O)n(CC3CCCCC3)cnc12)C(F)(F)F` [Example I-53] yielded an ECHCG [10] of 100, an SETVI [11] of 100 and an AMARE [1] of 100. For the same compound, the VIOTR [2] was 100, the MATIN [12] was 100 and the POLCO [13] was 100. The SETVI [7] was 100, the AMARE [4] was 100 and the VIOTR [5] was 100. For the same compound, the ABUTH [6] was 100 and the PHBPU [8] was 100.
`O=C(Nc1nsc2c(=O)n(CC3CCCCC3)cnc12)C(F)F` [Example I-44] was tested, and the ECHCG [10] was 100, the SETVI [11] was 100 and the AMARE [1] was 100. The VIOTR [2] was 100, the MATIN [12] was 100 and the POLCO [13] was 100. The AMARE [4] was 100, the VIOTR [5] was 100 and the ABUTH [6] was 100. For the same compound, the efficacy [14] was “at least 70%”.
